Test results as given in the NIST ThermoML archive (doi:10.1021/je500792x).

Experiment: xn = mol fraction of the nth substance listed
Settings: Gas, Buoyancy - hydrostatic balance with magnetic suspension - two sinkers

C [methane] + CCC
Settings | mass density [kg/m3]
293.15 K, 1153.9 kPa, x1 = 0.2658 | 20.3554
293.15 K, 1175 kPa, x1 = 0.2658 | 20.8043
293.15 K, 1187.5 kPa, x1 = 0.2658 | 21.0718
293.15 K, 1209.4 kPa, x1 = 0.5069 | 16.361
293.15 K, 1399.6 kPa, x1 = 0.5069 | 19.2777
293.15 K, 1605.8 kPa, x1 = 0.5069 | 22.5759
298.14 K, 160.58 kPa, x1 = 0.2658 | 2.414
298.15 K, 311.48 kPa, x1 = 0.2658 | 4.7646
298.15 K, 471.27 kPa, x1 = 0.2658 | 7.3487
298.15 K, 493.82 kPa, x1 = 0.7498 | 4.6835
298.15 K, 500.2 kPa, x1 = 0.7498 | 4.742
298.15 K, 605.41 kPa, x1 = 0.2658 | 9.6013
298.15 K, 758.38 kPa, x1 = 0.2658 | 12.2732
298.15 K, 785.06 kPa, x1 = 0.7498 | 7.5358
298.15 K, 909.2 kPa, x1 = 0.2658 | 15.0282
298.15 K, 999.01 kPa, x1 = 0.7498 | 9.679
298.15 K, 1000.6 kPa, x1 = 0.7498 | 9.6924
298.15 K, 1055.1 kPa, x1 = 0.2658 | 17.8236
298.15 K, 1094 kPa, x1 = 0.7498 | 10.6384
298.15 K, 1201.2 kPa, x1 = 0.2658 | 20.7664
298.15 K, 1355.7 kPa, x1 = 0.2658 | 24.0659
298.15 K, 1372.4 kPa, x1 = 0.7498 | 13.507
298.15 K, 1686.6 kPa, x1 = 0.7498 | 16.8301
298.15 K, 1999.5 kPa, x1 = 0.7498 | 20.2389
298.15 K, 2001.4 kPa, x1 = 0.7498 | 20.2558
298.15 K, 2075.4 kPa, x1 = 0.7498 | 21.0754
298.15 K, 3006.3 kPa, x1 = 0.7498 | 31.9148
298.15 K, 3043.9 kPa, x1 = 0.7498 | 32.3714
298.15 K, 3990.5 kPa, x1 = 0.7498 | 44.5527
298.15 K, 4003.1 kPa, x1 = 0.7498 | 44.7224
298.15 K, 4119.5 kPa, x1 = 0.7498 | 46.3151
298.15 K, 4424.2 kPa, x1 = 0.7498 | 50.5647
298.15 K, 4993.9 kPa, x1 = 0.7498 | 58.9113
298.15 K, 5997.5 kPa, x1 = 0.7498 | 74.9816
298.15 K, 5999.6 kPa, x1 = 0.7498 | 75.0173
323.16 K, 434.83 kPa, x1 = 0.5069 | 4.9489
323.16 K, 609.43 kPa, x1 = 0.5069 | 7.005
323.16 K, 747.99 kPa, x1 = 0.7498 | 6.5657
323.16 K, 981.92 kPa, x1 = 0.7498 | 8.6824
323.16 K, 1028.4 kPa, x1 = 0.5069 | 12.1152
323.16 K, 1206.2 kPa, x1 = 0.5069 | 14.365
323.16 K, 1225.9 kPa, x1 = 0.7498 | 10.9233
323.16 K, 1407.1 kPa, x1 = 0.5069 | 16.9693
323.16 K, 1492.3 kPa, x1 = 0.7498 | 13.4094
323.16 K, 1603.4 kPa, x1 = 0.5069 | 19.5802
323.16 K, 1721 kPa, x1 = 0.7498 | 15.578
323.16 K, 1804.7 kPa, x1 = 0.5069 | 22.3318
323.16 K, 1913.8 kPa, x1 = 0.5069 | 23.855
323.16 K, 1988.8 kPa, x1 = 0.7498 | 18.1586
323.16 K, 3017.7 kPa, x1 = 0.7498 | 28.51
323.16 K, 4475.4 kPa, x1 = 0.7498 | 44.4692
323.16 K, 5928.8 kPa, x1 = 0.7498 | 62.0416
323.17 K, 161.42 kPa, x1 = 0.2658 | 2.2297
323.17 K, 240.14 kPa, x1 = 0.5069 | 2.7038
323.17 K, 277.8 kPa, x1 = 0.2658 | 3.8766
323.17 K, 380.81 kPa, x1 = 0.2658 | 5.3632
323.17 K, 474.08 kPa, x1 = 0.2658 | 6.7339
323.17 K, 556.87 kPa, x1 = 0.2658 | 7.9706
323.17 K, 653.58 kPa, x1 = 0.2658 | 9.4407
323.17 K, 814.12 kPa, x1 = 0.5069 | 9.4697
323.17 K, 861.14 kPa, x1 = 0.2658 | 12.694
323.17 K, 956.3 kPa, x1 = 0.2658 | 14.2336
323.17 K, 1057.6 kPa, x1 = 0.2658 | 15.9088
323.17 K, 1155.4 kPa, x1 = 0.2658 | 17.5614
373.14 K, 736.34 kPa, x1 = 0.5069 | 7.2655
373.14 K, 1298.1 kPa, x1 = 0.5069 | 13.0615
373.14 K, 1387.2 kPa, x1 = 0.5069 | 14.0021
373.14 K, 1906.7 kPa, x1 = 0.5069 | 19.6043
373.15 K, 286.24 kPa, x1 = 0.5069 | 2.7813
373.15 K, 293.98 kPa, x1 = 0.7498 | 2.1956
373.15 K, 494.25 kPa, x1 = 0.7498 | 3.7047
373.15 K, 559.53 kPa, x1 = 0.5069 | 5.4874
373.15 K, 587.98 kPa, x1 = 0.5069 | 5.7723
373.15 K, 732.21 kPa, x1 = 0.7498 | 5.5128
373.15 K, 776.15 kPa, x1 = 0.5069 | 7.6695
373.15 K, 942.67 kPa, x1 = 0.5069 | 9.3682
373.15 K, 969.14 kPa, x1 = 0.5069 | 9.6405
373.15 K, 973.87 kPa, x1 = 0.7498 | 7.3646
373.15 K, 1118.7 kPa, x1 = 0.5069 | 11.1859
373.15 K, 1177.4 kPa, x1 = 0.5069 | 11.7969
373.15 K, 1222.4 kPa, x1 = 0.7498 | 9.2859
373.15 K, 1491.1 kPa, x1 = 0.7498 | 11.3819
373.15 K, 1497 kPa, x1 = 0.5069 | 15.1688
373.15 K, 1581.5 kPa, x1 = 0.5069 | 16.0735
373.15 K, 1707.3 kPa, x1 = 0.5069 | 17.4293
373.15 K, 1745.3 kPa, x1 = 0.5069 | 17.8434
373.15 K, 1990.9 kPa, x1 = 0.7498 | 15.3338
373.15 K, 1998.3 kPa, x1 = 0.7498 | 15.3921
373.15 K, 1999.3 kPa, x1 = 0.5069 | 20.6289
373.15 K, 3998.4 kPa, x1 = 0.7498 | 31.915
373.15 K, 4503 kPa, x1 = 0.7498 | 36.2589
373.15 K, 5859.6 kPa, x1 = 0.7498 | 48.2829
373.16 K, 150.36 kPa, x1 = 0.2658 | 1.7881
373.16 K, 249.5 kPa, x1 = 0.2658 | 2.984
373.16 K, 442.47 kPa, x1 = 0.2658 | 5.3479
373.16 K, 487.18 kPa, x1 = 0.7498 | 3.6521
373.16 K, 564.91 kPa, x1 = 0.2658 | 6.8735
373.16 K, 592.63 kPa, x1 = 0.2658 | 7.2228
373.16 K, 676.04 kPa, x1 = 0.2658 | 8.2772
373.16 K, 733.18 kPa, x1 = 0.2658 | 9.007
373.16 K, 866.5 kPa, x1 = 0.2658 | 10.7249
373.16 K, 883.43 kPa, x1 = 0.2658 | 10.9464
373.16 K, 963.18 kPa, x1 = 0.2658 | 11.9881
373.16 K, 991.05 kPa, x1 = 0.7498 | 7.4967
373.16 K, 1034.3 kPa, x1 = 0.2658 | 12.9279
373.16 K, 1057.2 kPa, x1 = 0.2658 | 13.2303
373.16 K, 1156.4 kPa, x1 = 0.2658 | 14.557
373.16 K, 1174.7 kPa, x1 = 0.2658 | 14.8058
373.16 K, 1293.1 kPa, x1 = 0.2658 | 16.4139
373.16 K, 1468.2 kPa, x1 = 0.7498 | 11.1998
373.16 K, 1985.8 kPa, x1 = 0.7498 | 15.2929
373.16 K, 2987.4 kPa, x1 = 0.7498 | 23.4236
373.16 K, 2996.6 kPa, x1 = 0.7498 | 23.4974
373.16 K, 3945 kPa, x1 = 0.7498 | 31.4611
373.16 K, 4881.1 kPa, x1 = 0.7498 | 39.5669
373.16 K, 6041.3 kPa, x1 = 0.7498 | 49.9291
373.17 K, 281.96 kPa, x1 = 0.2658 | 3.3776
373.17 K, 361.95 kPa, x1 = 0.2658 | 4.3551
373.17 K, 469.53 kPa, x1 = 0.2658 | 5.683
